Source: US8580975B2, “Synthesis of macrocyclic cancer chemotherapy agents and methods of use” (Purdue Research Foundation, priority 2008, dated 2013)

Key:
[1] = system: P388 murine leukemia cells; experiment: cell proliferation assay; type: cell-based
[2] = system: P388 murine leukemia cells; conditions: background, natural peloruside A; cited from earlier work
[3] = Mus musculus, P388 murine leukemia cells

Row | Compound | IC50 ([1]; P388 murine leukemia cells) | IC50 [1, 3] | further results
1 | epi-C-11 Peloruside A | 10 nM | – | –
2 | CC[C@H](/C=C(/C)[C@@H]1C[C@@H](OC)C[C@H](O)C(C)(C)[C@@]2(O)O[C@@H](C[C@@H](OC)CC(=O)O1)C[C@@H](OC)[C@H]2O)CO [2-des-Hydroxy-Peloruside A] | – | 120 nM | –
3 | CC[C@H](/C=C(/C)[C@@H]1C[C@@H](OC)C[C@H](O)C(C)(C)C(=O)[C@H](O)[C@H](OC)C[C@@H](O)C[C@@H](OC)CC(=O)O1)CO [Open Chain Isomer Of 2-Des-Hydroxy-Peloruside A] | – | – | IC50 ([1]; Mus musculus, P388): > 5000 nM
4 | CC[C@H](/C=C(/C)[C@@H]1C[C@@H](OC)C[C@H](O)C(C)(C)[C@@]2(O)O[C@@H](C[C@@H](OC)CC(=O)O1)C[C@@H](O)[C@H]2O)CO [2-des-Hydroxy-7-des-methoxy-7-hydroxy-Peloruside A] | – | 320 nM | –
5 | (+)-Peloruside A [reference compound] | 10 nM | – | IC50 value, antitumor activity against P388 murine leukemia cells [2]: 0.01 µg/mL
